Reference: PMC8000724, “Trans-Epithelial Transport, Metabolism, and Biological Activity Assessment of the Multi-Target Lupin Peptide [sequence] (P5) and Its Metabolite [sequence] (P5-Met)” (Nutrients, 2021)

Experiments:
[1] = tested on: differentiated Caco-2 cells; assay: Trans-epithelial transport across differentiated Caco-2 cell monolayer; format: in vitro ADME, human; conditions: for Amount in the BL compartment after 30 min: alone, 500 μM in AP, Caco-2 AP to BL
Experimental: Human intestinal Caco-2 cells, obtained from INSERM (Paris, France), where cultured according to a published protocol. For differentiation, they were seeded on polycarbonate filters, 12 mm diameter, 0.4 µm pore diameter (Transwell, Corning Inc., Lowell, MA, US) at a 3.5 × 10^5 cells/cm^2 density in complete medium supplemented with 10% FBS in both AP and BL compartments for 2 d to allow the formation of a confluent cell monolayer. Starting from day three after seeding, cells were transferred to FBS-free medium in both compartments, supplemented with ITS (final concentration 10 mg/L insulin (I), 5.5 mg/L transferrin (T), 6.7 μg/L sodium selenite (S); GIBCO-Invitrogen, San Giuliano Milanese, Italy) only in the basolateral (BL) compartment, and allowed to differentiate for 18–21 days with regular medium changes three times weekly.
The transepithelial electrical resistance (TEER) of differentiated Caco-2 cells was measured at 37 °C using the voltmeter apparatus Millicell (Millipore Co., Billerica, MA, USA), immediately before and at the end of the transport experiments. In addition, at the end of transport experiments, cells were incubated from the AP side with 1 mM phenol-red in PBS containing Ca^++ (0.9 mM) and Mg^++ (0.5 mM) for 1 h at 37 °C, to monitor the paracellular permeability of the cell monolayer. The BL solutions were then collected and NaOH (70 µL, 0.1 N) was added before reading the absorbance at 560 nm by a microplate reader Synergy H1 from Biotek (Winooski, VT, USA). Phenol-red passage was quantified using a standard phenol-red curve. Only filters showing TEER values and phenol red passages similar to untreated control cells were considered for peptide transport analysis.
Prior to experiments, the cell monolayer integrity and differentiation were checked by TEER measurement as described in detail above. Peptide trans-epithelial passage was assayed in differentiated Caco-2 cells in transport buffer solution (137 mM NaCl, 5.36 mM KCl, 1.26 mM CaCl2, and 1.1 mM MgCl2, 5.5 mM glucose) according to previously described conditions. In order to reproduce the pH conditions existing in vivo in the small intestinal mucosa, the apical (AP) solutions were maintained at pH 6.0 (buffered with 10 mM morpholinoethane sulfonic acid), and the basolateral (BL)solutions were maintained at pH 7.4 (buffered with 10 mM […]). Prior to transport experiments, cells were washed twice with 500 µL PBS containing Ca^++ and Mg^++. Peptide transportation by mature Caco-2 cells was assayed by loading the AP compartment with P5 alone, in mixture with […] (P3) and […] (P7), and/or P5-met (500 μM) in the AP transport solution (500 µL) and the BL compartment with the BL transport solution (700 µL). The plates were incubated at 37 °C and the BL solutions were collected at different time points (i.e., 15, 30, 60, 90, and 120 min) and replaced with fresh solutions pre-warmed at 37 °C. All BL and AP solutions collected at the end of the transport experiment were stored at −80 °C prior to analysis. Three independent transport experiments were performed, each in duplicate. In order to assess the involvement of transcytotic process in peptides passage, parallel transport experiments were performed in the presence of 500 nM wortmannin in both the AP and BL compartment, over 60 min incubation time.
The medium collected at the end of transport experiments from AP and BL chambers (500 µL and 700 µL, respectively) were freeze-dried and residues were solubilized in HPLC water (100 µL). Samples were desalted with C18 resin ZipTip by using 80% ACN, 0.1% FA as eluent (Millipore Corporation, Bedford, MA, USA). Each sample was lyophilized under speed-vacuum for 5 h at 30°C and re-dissolved in 50 μL (0.1% formic acid), before MS analysis. Purified BL samples were analyzed on a SL IT mass spectrometer interfaced with a HPLC- Chip Cube source (Agilent Technologies, Palo Alto, CA, USA). […]

SREBP-2 = assay: Western blot, SREBP-2 protein level in HepG2 cells; format: cell-based, human; conditions: HepG2, 50 µM, 24 h, mean ± SD
Experimental: The HepG2 cell line was bought from ATCC (HB-8065, ATCC from LGC Standards, Milan, Italy) and was cultured in DMEM high glucose with stable L-glutamine, supplemented with 10% FBS, 100 U/mL penicillin, 100 µg/mL streptomycin (complete growth medium) with incubation at 37 °C under 5% CO2 atmosphere.
Immunoblotting experiments were performed using optimized protocol. A total of 1.5 × 10^5 HepG2 cells/well (24-well plate) were treated with 50 μM of P5 and P5-met for 24 h. After each treatment, the supernatants were collected and stored at −20°C; cells were scraped in 40 µL ice-cold lysis buffer (RIPA buffer + inhibitor cocktail + 1:100 PMSF + 1:100 Na-orthovanadate + 1:1000 β-mercaptoethanol) and transferred in ice-cold microcentrifuge tubes. […] Total proteins were quantified by the Bradford’s method and 50 μg of total proteins loaded on a pre-cast 7.5% Sodium Dodecyl Sulfate-Polyacrylamide (SDS-PAGE) gel at 130 V for 45 min. […] Target proteins, on milk or BSA blocked membrane, were detected by primary antibodies as follows: anti-SREBP-2, anti-LDLR, anti-HMGCoAR, anti-PCSK9, anti HNF1-α and anti-β-actin. Secondary antibodies conjugated with HRP and a chemiluminescent reagent were used to visualize target proteins and their signal was quantified using the Image Lab Software (Biorad, Hercules, CA, USA). […]

HepG2 cells = assay: Fluorescent LDL uptake by HepG2 cells; format: cell-based, human; conditions: mean ± SD
Experimental: HepG2 cells (3 × 10^4/well) were seeded in 96-well plates and kept in complete growth medium for 2 days before treatment. The third day, cells were washed with PBS and then starved overnight (O/N) in DMEM without FBS and antibiotics. After starvation, they were treated with 4.0 μg/mL PCSK9 and 4.0 μg/mL PCSK9 + P5 and P5-met peptides (50.0 µM), and vehicle (H2O) for 2 h with at 37 °C under 5% CO2 atmosphere. At the end of the treatment, the culture medium was replaced with 50 μL/well LDL-DyLight™ 550 working solution (Cayman Chemical Company, Ann Arbor, MI, USA) prepared in DMEM without FBS and antibiotics. The cells were additionally incubated for 2 h at 37 °C and then the culture medium was aspirated and replaced with PBS (100 μL/well). The degree of LDL uptake was measured using the Synergy H1 fluorescent plate reader (Winooski, VT, USA) (excitation and emission wavelengths 540 and 570 nm, respectively). Fluorescent LDL-uptake was finally assessed following optimized protocol.

Substance: H-LPKHSDAD-OH [Peptide P5-met]
- Effect of the transcytosis inhibitor wortmannin on transport across Caco-2 cells ([1]; 500 nM wortmannin in AP and BL compartments, 60 min, HPLC-Chip MS of BL compartment): transported also in the presence of wortmannin
- Amount in the BL compartment after 30 min ([1]; AP pH 6.0 / BL pH 7.4, 37 °C, LC-MS/MS MRM, mean ± SD of three independent experiments): 0.54 ± 0.02 µg
- Amount in the BL compartment after 30 min ([1]; conversion of the µg value): 0.613 nmol
- SREBP-2 protein level versus the control (SREBP-2): 130.4 ± 16.4%
- Ability of HepG2 cells to absorb extracellular LDL versus the control (HepG2 cells; HepG2, 50 µM, fluorescent LDL-DyLight 550, without added PCSK9): 181.2 ± 40.1%
- LDL uptake by HepG2 cells restored, co-incubation with PCSK9 (HepG2 cells; peptide 50 µM + PCSK9 4 µg/mL, 2 h, % of untreated cells): 104.1 ± 8.5%
